Legend:
[1] = test system: hippocampal neurons; assay: whole cell patch-clamp recording of EGABA with imposed Cl− load in hippocampal neurons; type: cell-based, Sprague Dawley; conditions: incubated 1 h, 32 mM Cl− load, 5 min after break-in, controls −47.4±2.3
Procedure: Neuronal Cultures. Hippocampal neurons were prepared from Sprague Dawley E18 embryos and plated at 450,000 per dish and maintained at 37° C. in a humidified 5% CO2 incubator for 10-25 days before experimentation (Lee et al., Nat. Neurosci. 14, 736-743 (2011)).
Neuronal Patch clamp assays. Neuronal cell culture recordings were performed in bath saline at 34° C. For gramicidin perforated-patch experiments, pipettes contained (in mM): 140 KCl and 10 HEPES, pH 7.4 KOH. For whole-cell experiments, pipettes contained (in mM): 115 K-meth-SO4, 30 KCl, 2 Mg-ATP, 4 Na-ATP, 0.4 Na-GTP, and 10 HEPES, pH 7.4 KOH. Bath saline contained the following (in mM): 140 NaCl, 2.5 KCl, 2.5 CaCl2, 2.5 MgCl2, 10 HEPES, and 11 glucose, pH 7.4 NaOH (Kontou et al., 2021, supra). All compound solutions were applied to cells using a three-barreled 700 μm pipe positioned just above the cell (Warner Instruments). […] All voltages from whole-cell experiments were corrected offline using a calculated liquid junction potential value (13.6 mV) in Clampex (Molecular Devices). For gramicidin perforated-patch experiments, intracellular Cl^− values were back-calculated using measured EGABA values and the Nernst equation: […]
5 min after break-in, an initial EGABA value was determined and the effects of a subsequent 5 min incubation with VU0463271 was assessed.

[2] = PK studies, brain and plasma levels by LC-MS/MS; type: in vivo; conditions: mice
Procedure: PK studies. […] Plasma and brain samples were rapidly frozen on dry ice.
Drug accumulation in the brain was examined following SC injection (FIG. 4C; 50 mg/kg).

[3] = target: T1, KCC3 (Homo sapiens, UniProt Q9UHW9); assay: TI+ flux assay, HEK-293 cells expressing KCC3; type: cell-based; conditions: read-out: concentration at which effects on KCC3 were seen (EC50 chart FIG. 1G)
T1 construct: expressed in transfected cells; host or cells: HEK-293
T1 sequence (Q9UHW9 1-1150): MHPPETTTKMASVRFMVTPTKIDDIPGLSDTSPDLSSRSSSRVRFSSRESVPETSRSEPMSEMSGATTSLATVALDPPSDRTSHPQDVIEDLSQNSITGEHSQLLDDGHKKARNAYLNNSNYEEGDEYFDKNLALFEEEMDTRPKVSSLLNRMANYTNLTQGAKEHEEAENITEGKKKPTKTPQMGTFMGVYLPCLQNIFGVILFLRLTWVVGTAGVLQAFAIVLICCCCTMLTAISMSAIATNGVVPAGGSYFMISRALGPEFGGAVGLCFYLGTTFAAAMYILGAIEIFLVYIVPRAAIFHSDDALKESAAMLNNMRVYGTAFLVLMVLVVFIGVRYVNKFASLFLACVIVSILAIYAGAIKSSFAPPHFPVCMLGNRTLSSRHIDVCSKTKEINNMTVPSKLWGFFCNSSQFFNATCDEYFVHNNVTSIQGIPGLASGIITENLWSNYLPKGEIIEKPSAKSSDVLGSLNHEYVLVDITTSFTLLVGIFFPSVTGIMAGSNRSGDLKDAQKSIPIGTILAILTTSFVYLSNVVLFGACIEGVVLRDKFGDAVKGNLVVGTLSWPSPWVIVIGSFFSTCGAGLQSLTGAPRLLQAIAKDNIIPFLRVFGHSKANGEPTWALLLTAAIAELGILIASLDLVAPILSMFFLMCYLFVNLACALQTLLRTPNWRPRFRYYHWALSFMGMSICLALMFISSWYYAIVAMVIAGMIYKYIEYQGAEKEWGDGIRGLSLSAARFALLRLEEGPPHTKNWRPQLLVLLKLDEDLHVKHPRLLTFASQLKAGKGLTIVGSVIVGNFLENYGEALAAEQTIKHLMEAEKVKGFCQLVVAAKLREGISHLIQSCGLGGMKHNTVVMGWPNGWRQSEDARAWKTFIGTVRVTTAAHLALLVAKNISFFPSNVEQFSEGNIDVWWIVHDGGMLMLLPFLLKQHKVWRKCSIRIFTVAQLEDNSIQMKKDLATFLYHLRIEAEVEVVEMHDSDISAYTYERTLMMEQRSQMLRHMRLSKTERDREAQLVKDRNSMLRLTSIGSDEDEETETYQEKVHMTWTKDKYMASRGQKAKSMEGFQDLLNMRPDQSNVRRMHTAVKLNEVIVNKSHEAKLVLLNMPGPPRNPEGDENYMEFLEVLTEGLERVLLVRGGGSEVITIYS
Procedure: FLIPR TI Flux assay. HEK-293 cells were washed with HBSS, and then incubated with loading buffer containing TI sensitive fluorescent dye (https://www.moleculardevices.com), 20 μM bumetanide 20 μM ouabain and 2.5 mM probenecid for 1 h at room temperature (RT) under control conditions or with drugs in the dark using a FlexStation 3 microplate reader (Molecular Devices) and imaged […] for 30 min. Stimulus buffer was added containing 5 mM K^+/0.5 mM Tl^+ and cells were imaged every 1.5 over a 190 second time course The initial rate Tl^+ uptake (Relative Fluorescence Units (RFU) per second) was determined following addition of the stimulus buffer as outlined previously (Conway et al., 2017, supra) (Lee et al., 2022, supra).
Several studies have shown that the activity and plasma membrane accumulation of KCC2 is potentiated via phosphorylation of S940, a process mediated by the activity of protein kinase C and protein phosphatase 1 (Lee et al., 2011, supra; Lee et al., J Biol Chem 282, 29777-29784 (2007); Moore et al., Proc. Natl. Acad. Sci. U.S.A. 115, 10166-10171 (2018); Moore et al., Trends Neurosci. 40, 555-571 (2017); Silayeva et al., Proc. Natl. Acad. Sci. U.S.A. 112, 3523-3528 (2015)). […] Compared to KCC2, effects on KCC3, KCC4, and NKCC1 were only seen at concentrations more than 35-fold that of KCC2 (>100 μM) (FIG. 1G).

## C[C@@H]1CN(c2nc3c(c(Nc4ccc(C5CCCCC5)cc4)n2)COC3)CCO1 [Compound A, (R)—N-(4-cyclohexylphenyl)-2-(2-methylmorpholino)-5,7-dihydrofuro[3,4-d]pyrimidin-4-amine]
[1]
  basal EGABA: -59.3 ± 2.1 mV
[2]; 25 mg/kg IV bolus
  time at which accumulation in the brain was evident: ≤ 30 min
[2]; SC 50 mg/kg
  brain level 8 h later: maintained
  time at which accumulation in the brain was detected: 30 min
  time of maximal concentration in the brain: 4 h
[3]
  EC50: > 100 µM

— patent US20250281498A1, “FUSED AMINO PYRIMIDINE COMPOUNDS FOR TREATMENT OF SYNUCLEINOPATHIES AND TDP-43 PROTEINOPATHIES” (Ovid Therapeutics Inc., priority 2024, published 2025)
